Measured values published in patent US9382258B2, “Agents for treating pain and uses thereof” (AbbVie Inc., priority 2012, dated 2016).

These molecules were tested against T1, human Cav2.2 (Homo sapiens, UniProt Q00975) (assay: Calcium flux (FLIPR, Calcium 4 dye) in IMR32 cells endogenously expressing human Cav2.2). Conditions: 60 minute pre-incubation, 2 μM nifedipine to block L-type channels, depolarized with 80 mM KCl, 5 mM CaCl2, average of n≥2 runs unless marked *.
T1 construct: cells endogenously expressing human Cav2.2; endogenous in cells; host or cells: IMR32 cells
Type: cell-based
Procedure: Compounds were tested for effect on calcium flux in cells endogenously expressing human Cav2.2. Specifically, IMR32 cells endogenously expressing human Cav2.2 were assayed for Ca^2+ influx using a no-wash calcium indicator dye (Calcium 4 dye: Molecular Probes) and FLIPR technology (Lubin, M L; et al. Assay and Drug Development Technologies, 2006, 4(6), 689-694). The IMR32 cells were maintained in MEM media containing 10% (v/v) FBS, 1% (v/v) antibiotic/antimitotic, 1% (v/v) sodium pyruvate and 1% (v/v) MEM NEAA. Following dissociation in 0.05% (v/v) trypsin/EDTA, cells were seeded into black 1×96-well plates (Corning Cellbind) at a density of 1−1.2×10^5 cells/well and incubated in the maintenance media above for 48 hours at 37° C. Immediately prior to performing the assay the media was removed and cells were loaded for 1.5 hours with 1× Calcium 4 dye prepared in HBSS (137 mM NaCl, 5.4 mM KCl, 0.25 mM Na2HPO4, 0.44 mM KH2PO4, 1.3 mM CaCl2, 1 mM MgSO4, 4.2 mM NaHCO3) containing HEPES pH 7.4 at room temperature. After dye loading and a subsequent 60 minute pre-incubation with compounds (full log dilutions from 10 μM to 0.1 nM) in the presence of 1.3 mM CaCl2 and 2 μM nifedipine to block endogenous L-type channels, the external Ca^2+ concentration was increased to 5 mM CaCl2 and the cells concomitantly depolarized with 80 mM KCl to assay channel activity.
To determine the IC50 values, the percent inhibition of the compound at each concentration was determined relative to the activity in the absence of inhibitor, and data was fitted using non-linear regression sigmoidal dose response curve analysis with GraphPad Prism®. Unless otherwise indicated (*), the reported values are average values from at least two runs (i.e., n≧2).

T1 sequence (Q00975 whole entry): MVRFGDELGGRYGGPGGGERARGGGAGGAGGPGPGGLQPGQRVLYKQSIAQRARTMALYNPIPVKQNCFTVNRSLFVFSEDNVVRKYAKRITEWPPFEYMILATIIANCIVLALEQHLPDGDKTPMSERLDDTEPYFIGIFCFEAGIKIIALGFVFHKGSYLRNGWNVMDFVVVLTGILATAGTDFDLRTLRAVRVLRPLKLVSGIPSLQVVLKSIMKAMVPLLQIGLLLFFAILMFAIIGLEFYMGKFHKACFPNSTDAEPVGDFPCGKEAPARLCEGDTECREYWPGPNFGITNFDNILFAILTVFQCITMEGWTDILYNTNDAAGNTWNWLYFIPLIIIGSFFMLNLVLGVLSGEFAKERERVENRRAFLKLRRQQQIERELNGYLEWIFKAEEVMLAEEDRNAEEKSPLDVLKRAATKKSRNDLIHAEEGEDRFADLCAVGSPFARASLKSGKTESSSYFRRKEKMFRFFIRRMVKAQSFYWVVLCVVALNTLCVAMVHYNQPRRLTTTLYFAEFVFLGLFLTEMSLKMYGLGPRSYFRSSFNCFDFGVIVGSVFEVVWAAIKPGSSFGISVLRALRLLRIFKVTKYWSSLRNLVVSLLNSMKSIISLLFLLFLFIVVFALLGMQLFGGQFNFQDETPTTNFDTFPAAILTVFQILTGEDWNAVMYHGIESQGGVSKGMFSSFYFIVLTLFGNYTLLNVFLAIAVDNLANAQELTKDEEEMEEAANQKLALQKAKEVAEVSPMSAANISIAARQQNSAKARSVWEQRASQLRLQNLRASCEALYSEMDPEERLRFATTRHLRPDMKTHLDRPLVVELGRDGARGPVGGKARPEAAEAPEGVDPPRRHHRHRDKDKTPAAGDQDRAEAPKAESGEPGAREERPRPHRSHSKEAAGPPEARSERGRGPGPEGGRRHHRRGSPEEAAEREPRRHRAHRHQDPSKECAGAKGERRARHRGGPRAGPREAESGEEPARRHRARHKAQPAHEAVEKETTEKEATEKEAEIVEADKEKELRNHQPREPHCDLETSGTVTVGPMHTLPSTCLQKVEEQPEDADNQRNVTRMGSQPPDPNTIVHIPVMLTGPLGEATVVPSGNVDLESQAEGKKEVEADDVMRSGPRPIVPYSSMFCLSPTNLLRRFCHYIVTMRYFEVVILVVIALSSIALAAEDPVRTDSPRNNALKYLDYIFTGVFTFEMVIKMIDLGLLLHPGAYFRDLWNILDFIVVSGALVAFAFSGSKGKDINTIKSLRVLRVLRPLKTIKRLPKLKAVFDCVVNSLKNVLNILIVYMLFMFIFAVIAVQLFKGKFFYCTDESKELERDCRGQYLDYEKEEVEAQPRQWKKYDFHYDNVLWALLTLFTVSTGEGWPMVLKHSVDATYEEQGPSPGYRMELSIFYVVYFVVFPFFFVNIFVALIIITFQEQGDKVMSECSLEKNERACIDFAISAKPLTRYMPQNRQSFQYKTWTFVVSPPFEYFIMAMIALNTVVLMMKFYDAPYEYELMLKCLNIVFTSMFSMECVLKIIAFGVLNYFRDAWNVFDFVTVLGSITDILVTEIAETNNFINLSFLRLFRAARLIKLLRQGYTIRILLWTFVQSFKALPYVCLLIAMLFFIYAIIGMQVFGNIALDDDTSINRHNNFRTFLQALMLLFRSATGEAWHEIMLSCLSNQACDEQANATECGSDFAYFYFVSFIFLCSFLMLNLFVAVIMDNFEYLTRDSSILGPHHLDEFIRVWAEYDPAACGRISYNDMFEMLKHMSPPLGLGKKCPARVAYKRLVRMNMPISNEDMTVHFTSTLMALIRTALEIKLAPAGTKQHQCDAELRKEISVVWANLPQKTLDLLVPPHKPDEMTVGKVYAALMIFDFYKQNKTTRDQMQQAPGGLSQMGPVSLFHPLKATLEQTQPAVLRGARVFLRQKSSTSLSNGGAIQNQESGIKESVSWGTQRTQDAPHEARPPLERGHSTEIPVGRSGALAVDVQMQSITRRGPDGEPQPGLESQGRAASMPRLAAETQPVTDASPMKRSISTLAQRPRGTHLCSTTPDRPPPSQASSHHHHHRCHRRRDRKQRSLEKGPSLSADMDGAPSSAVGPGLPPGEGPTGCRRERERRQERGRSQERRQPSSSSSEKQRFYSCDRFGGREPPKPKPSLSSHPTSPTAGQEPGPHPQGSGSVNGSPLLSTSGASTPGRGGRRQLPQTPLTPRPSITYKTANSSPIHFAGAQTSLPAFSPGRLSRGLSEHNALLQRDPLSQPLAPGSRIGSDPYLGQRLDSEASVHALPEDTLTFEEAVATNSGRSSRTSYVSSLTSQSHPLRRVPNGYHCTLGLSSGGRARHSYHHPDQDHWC
T1 sequence (P54284 whole entry partner): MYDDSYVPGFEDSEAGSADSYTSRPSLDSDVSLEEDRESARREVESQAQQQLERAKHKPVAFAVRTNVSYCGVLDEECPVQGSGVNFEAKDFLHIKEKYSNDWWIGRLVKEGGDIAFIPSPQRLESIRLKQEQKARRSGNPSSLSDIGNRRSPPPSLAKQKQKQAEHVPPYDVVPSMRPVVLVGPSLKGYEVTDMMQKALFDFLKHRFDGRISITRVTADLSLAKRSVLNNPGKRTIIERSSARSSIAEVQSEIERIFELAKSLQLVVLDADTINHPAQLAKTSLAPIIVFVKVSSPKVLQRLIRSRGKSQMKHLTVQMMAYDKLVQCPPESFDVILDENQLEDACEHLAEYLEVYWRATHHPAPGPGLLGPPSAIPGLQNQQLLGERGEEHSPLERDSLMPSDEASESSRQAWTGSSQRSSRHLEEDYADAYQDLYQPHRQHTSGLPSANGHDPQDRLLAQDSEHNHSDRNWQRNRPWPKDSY
T1 sequence (P54289 25-956 partner limits assumed): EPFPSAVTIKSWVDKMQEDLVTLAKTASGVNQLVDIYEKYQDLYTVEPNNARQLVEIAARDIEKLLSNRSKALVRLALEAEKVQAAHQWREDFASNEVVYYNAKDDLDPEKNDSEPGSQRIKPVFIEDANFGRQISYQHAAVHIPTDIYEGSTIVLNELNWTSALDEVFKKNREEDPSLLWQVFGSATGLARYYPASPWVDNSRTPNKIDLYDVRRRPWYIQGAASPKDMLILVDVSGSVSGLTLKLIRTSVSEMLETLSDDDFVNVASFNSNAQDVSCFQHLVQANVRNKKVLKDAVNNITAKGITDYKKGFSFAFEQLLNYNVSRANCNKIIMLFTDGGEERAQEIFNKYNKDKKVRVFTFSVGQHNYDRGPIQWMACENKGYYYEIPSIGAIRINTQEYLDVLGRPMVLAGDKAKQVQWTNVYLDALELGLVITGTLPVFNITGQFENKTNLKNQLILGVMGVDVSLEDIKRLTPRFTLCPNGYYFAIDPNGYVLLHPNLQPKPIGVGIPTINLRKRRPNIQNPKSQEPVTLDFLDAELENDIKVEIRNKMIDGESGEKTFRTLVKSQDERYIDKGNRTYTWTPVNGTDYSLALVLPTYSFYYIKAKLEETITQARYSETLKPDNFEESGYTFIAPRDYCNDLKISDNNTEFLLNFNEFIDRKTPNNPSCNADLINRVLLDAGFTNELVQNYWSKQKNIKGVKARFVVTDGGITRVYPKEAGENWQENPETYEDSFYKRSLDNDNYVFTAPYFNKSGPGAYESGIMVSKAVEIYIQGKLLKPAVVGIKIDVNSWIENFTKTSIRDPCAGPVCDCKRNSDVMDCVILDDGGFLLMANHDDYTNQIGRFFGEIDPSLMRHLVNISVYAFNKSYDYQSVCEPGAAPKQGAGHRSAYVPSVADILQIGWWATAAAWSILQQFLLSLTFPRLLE
T1 sequence (P54289 957-1103 partner limits assumed): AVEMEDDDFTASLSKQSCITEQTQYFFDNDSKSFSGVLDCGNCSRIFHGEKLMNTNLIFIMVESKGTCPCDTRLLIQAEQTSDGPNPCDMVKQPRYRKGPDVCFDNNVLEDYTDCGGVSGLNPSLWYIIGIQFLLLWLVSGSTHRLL

SMILES | IC50 [µM]
O=S(=O)(c1ccc(C(F)(F)F)cc1)N1CCCN2C[C@H](Oc3cnc(C4CC4)cn3)C[C@H]2C1 [Example 2, (8R,9aS)-8-[(5-cyclopropylpyrazin-2-yl)oxy]-2-{[4-(trifluoromethyl)phenyl]sulfonyl}octahydro-1H-pyrrolo[1,2-a][1,4]diazepane] | 0.2
O=C1[C@@H](Oc2ccc(C(F)(F)F)cn2)C[C@H]2CN(S(=O)(=O)c3cccc(C(F)(F)F)c3)CCCN12 [Example 3, (8S,9aS)-2-{[3-(trifluoromethyl)phenyl]sulfonyl}-8-{[5-(trifluoromethyl)pyridin-2-yl]oxy}octahydro-7H-pyrrolo[1,2-a][1,4]diazepin-7-one] | 1.25
O=C1[C@H](Oc2ccc(C(F)(F)F)cn2)C[C@H]2CN(S(=O)(=O)c3cccc(C(F)(F)F)c3)CCCN12 [Example 4, (8R,9aS)-2-{[3-(trifluoromethyl)phenyl]sulfonyl}-8-{[5-(trifluoromethyl)pyridin-2-yl]oxy}octahydro-7H-pyrrolo[1,2-a][1,4]diazepin-7-one] | 0.88
O=C1[C@@H](Oc2ccc(C(F)(F)F)cn2)C[C@H]2CN(S(=O)(=O)c3ccc(C(F)(F)F)cc3)CCCN12 [Example 5, (8S,9aS)-2-{[4-(trifluoromethyl)phenyl]sulfonyl}-8-{[5-(trifluoromethyl)pyridin-2-yl]oxy}octahydro-7H-pyrrolo[1,2-a][1,4]diazepin-7-one] | 1.76
O=C1[C@H](Oc2ccc(C(F)(F)F)cn2)C[C@H]2CN(S(=O)(=O)c3ccc(C(F)(F)F)cc3)CCCN12 [Example 6, (8R,9aS)-2-{[4-(trifluoromethyl)phenyl]sulfonyl}-8-{[5-(trifluoromethyl)pyridin-2-yl]oxy}octahydro-7H-pyrrolo[1,2-a][1,4]diazepin-7-one] | 0.91
O=C(c1ccc(F)cc1)N1CCCN2C[C@H](Oc3cnc(C4CC4)cn3)C[C@H]2C1 [Example 8, [(8R,9aS)-8-[(5-cyclopropylpyrazin-2-yl)oxy]hexahydro-1H-pyrrolo[1,2-a][1,4]diazepin-2(3H)-yl](4-fluorophenyl)methanone] | 3.04
O=C(c1cccc(OC(F)(F)F)c1)N1CCCN2C[C@H](Oc3cnc(C4CC4)cn3)C[C@H]2C1 [Example 9, [(8R,9aS)-8-[(5-cyclopropylpyrazin-2-yl)oxy]hexahydro-1H-pyrrolo[1,2-a][1,4]diazepin-2(3H)-yl][3-(trifluoromethoxy)phenyl]methanone] | 1.35
O=C(c1cccc(C(F)(F)F)c1F)N1CCCN2C[C@H](Oc3cnc(C4CC4)cn3)C[C@H]2C1 [Example 10, [(8R,9aS)-8-[(5-cyclopropylpyrazin-2-yl)oxy]hexahydro-1H-pyrrolo[1,2-a][1,4]diazepin-2(3H)-yl][2-fluoro-3-(trifluoromethyl)phenyl]methanone] | 0.92
O=C(c1cccc(C(F)(F)F)n1)N1CCCN2C[C@H](Oc3cnc(C4CC4)cn3)C[C@H]2C1 [Example 12, [(8R,9aS)-8-[(5-cyclopropylpyrazin-2-yl)oxy]hexahydro-1H-pyrrolo[1,2-a][1,4]diazepin-2(3H)-yl][6-(trifluoromethyl)pyridin-2-yl]methanone] | 6.22
O=C(c1ccc(F)c(C(F)(F)F)c1)N1CCCN2C[C@H](Oc3cnc(C4CC4)cn3)C[C@H]2C1 [Example 14, [(8R,9aS)-8-[(5-cyclopropylpyrazin-2-yl)oxy]hexahydro-1H-pyrrolo[1,2-a][1,4]diazepin-2(3H)-yl][4-fluoro-3-(trifluoromethyl)phenyl]methanone] | 1.45
O=C(c1ccc(C(F)(F)F)c(F)c1)N1CCCN2C[C@H](Oc3cnc(C4CC4)cn3)C[C@H]2C1 [Example 15, [(8R,9aS)-8-[(5-cyclopropylpyrazin-2-yl)oxy]hexahydro-1H-pyrrolo[1,2-a][1,4]diazepin-2(3H)-yl][3-fluoro-4-(trifluoromethyl)phenyl]methanone] | 1.33
O=C(c1ccc(F)c(Cl)c1)N1CCCN2C[C@H](Oc3cnc(C4CC4)cn3)C[C@H]2C1 [Example 16, (3-chloro-4-fluorophenyl)[(8R,9aS)-8-[(5-cyclopropylpyrazin-2-yl)oxy]hexahydro-1H-pyrrolo[1,2-a][1,4]diazepin-2(3H)-yl]methanone] | 2.3
O=C(c1cc(C(F)(F)F)ccc1F)N1CCCN2C[C@H](Oc3cnc(C4CC4)cn3)C[C@H]2C1 [Example 17, [(8R,9aS)-8-[(5-cyclopropylpyrazin-2-yl)oxy]hexahydro-1H-pyrrolo[1,2-a][1,4]diazepin-2(3H)-yl][2-fluoro-5-(trifluoromethyl)phenyl]methanone] | 1.58
O=C1[C@@H]2C[C@@H](Oc3cnc(C4CC4)cn3)CN2CCCN1Cc1ccc(C(F)(F)F)c(F)c1 [Example 25, (8R,9aS)-8-[(5-cyclopropylpyrazin-2-yl)oxy]-2-[3-fluoro-4-(trifluoromethyl)benzyl]octahydro-1H-pyrrolo[1,2-a][1,4]diazepin-1-one] | 1.19
O=C1[C@@H]2C[C@@H](Oc3cnc(C4CC4)cn3)CN2CCCN1Cc1ccc(F)c(C(F)(F)F)c1 [Example 26, (8R,9aS)-8-[(5-cyclopropylpyrazin-2-yl)oxy]-2-[4-fluoro-3-(trifluoromethyl)benzyl]octahydro-1H-pyrrolo[1,2-a][1,4]diazepin-1-one] | 1.1
O=C1CCN(S(=O)(=O)c2cccc(C(F)(F)F)c2)C[C@@H]2C[C@@H](Oc3cnc(C4CC4)cn3)CN12 [Example 28, (8R,9aS)-8-[(5-cyclopropylpyrazin-2-yl)oxy]-2-{[3-(trifluoromethyl)phenyl]sulfonyl}octahydro-5H-pyrrolo[1,2-a][1,4]diazepin-5-one] | 1.83
O=C1CCN(S(=O)(=O)c2ccc(C(F)(F)F)cc2)C[C@@H]2C[C@@H](Oc3cnc(C4CC4)cn3)CN12 [Example 29, (8R,9aS)-8-[(5-cyclopropylpyrazin-2-yl)oxy]-2-{[4-(trifluoromethyl)phenyl]sulfonyl}octahydro-5H-pyrrolo[1,2-a][1,4]diazepin-5-one] | 0.49

More lines, now with the values ahead:

IC50 [µM] | SMILES
9.27 | O=C(c1ccc(C(F)(F)F)cn1)N1CCCN2C[C@H](Oc3cnc(C4CC4)cn3)C[C@H]2C1 [Example 11, [(8R,9aS)-8-[(5-cyclopropylpyrazin-2-yl)oxy]hexahydro-1H-pyrrolo[1,2-a][1,4]diazepin-2(3H)-yl][5-(trifluoromethyl)pyridin-2-yl]methanone]
1.19 | O=C(c1ccc(C(F)(F)F)cc1F)N1CCCN2C[C@H](Oc3cnc(C4CC4)cn3)C[C@H]2C1 [Example 18, [(8R,9aS)-8-[(5-cyclopropylpyrazin-2-yl)oxy]hexahydro-1H-pyrrolo[1,2-a][1,4]diazepin-2(3H)-yl][2-fluoro-4-(trifluoromethyl)phenyl]methanone]
0.75 | FC(F)(F)c1cccc(N2CCCN3C[C@H](Oc4cnc(C5CC5)cn4)C[C@H]3C2)n1 [Example 20, (8R,9aS)-8-[(5-cyclopropylpyrazin-2-yl)oxy]-2-[6-(trifluoromethyl)pyridin-2-yl]octahydro-1H-pyrrolo[1,2-a][1,4]diazepane]
3.47 | O=C1[C@H](Oc2cnc(C3CC3)cn2)C[C@H]2CN(c3ccc(C(F)(F)F)cn3)CCCN12 [Example 21, (8R,9aS)-8-[(5-cyclopropylpyrazin-2-yl)oxy]-2-[5-(trifluoromethyl)pyridin-2-yl]octahydro-7H-pyrrolo[1,2-a][1,4]diazepin-7-one]
1.72 | O=C1[C@@H]2C[C@@H](Oc3cnc(C4CC4)cn3)CN2CCCN1Cc1cccc(C(F)(F)F)c1 [Example 22, (8R,9aS)-8-[(5-cyclopropylpyrazin-2-yl)oxy]-2-[3-(trifluoromethyl)benzyl]octahydro-1H-pyrrolo[1,2-a][1,4]diazepin-1-one]
0.98 | O=C1[C@@H]2C[C@@H](Oc3cnc(C4CC4)cn3)CN2CCCN1Cc1ccc(C(F)(F)F)cc1 [Example 23, (8R,9aS)-8-[(5-cyclopropylpyrazin-2-yl)oxy]-2-[4-(trifluoromethyl)benzyl]octahydro-1H-pyrrolo[1,2-a][1,4]diazepin-1-one]
2.94 | O=C1[C@H]2C[C@@H](Oc3cnc(C4CC4)cn3)CN2CCCN1Cc1ccc(C(F)(F)F)cc1 [Example 24, (8R,9aR)-8-[(5-cyclopropylpyrazin-2-yl)oxy]-2-[4-(trifluoromethyl)benzyl]octahydro-1H-pyrrolo[1,2-a][1,4]diazepin-1-one]
10 | O=C1[C@@H]2C[C@@H](Oc3cnc(C4CC4)cn3)CN2CCCN1c1cccc(C(F)(F)F)c1 [Example 27, (8R,9aS)-8-[(5-cyclopropylpyrazin-2-yl)oxy]-2-[3-(trifluoromethyl)phenyl]octahydro-1H-pyrrolo[1,2-a][1,4]diazepin-1-one]
